Results from patent US20220024921A1, “1,3,4-OXADIAZOLONE COMPOUND AND PHARMACEUTICAL” (NIPPON SHINYAKU CO., LTD., priority 2018, published 2022).
Where a name gives a salt, the structure may show the parent alone.

Assays:
[1] = biological target: PIM1 transgenic cells (Ba/F3) (Homo sapiens, UniProt P11309); assay: Proliferation inhibitory effect on PIM1 transgenic cells; type: cell-based, mouse; settings: proliferation inhibition, 72 hours, Cell Counting Kit-8, read-out: PIM1 IC50
Excerpt: Human PIM1, 2, and 3 genes were inserted into the multi-cloning sites of retrovirus expression vectors pMYs-IRES-GFP, respectively, to prepare gene transfer vectors. Then, each gene transfer vector was introduced into packaging cells PLAT-E derived from a human fetal kidney cell line in the logarithmic growth phase, using a transfection reagent (FuGENE6, Promega Corporation). Since the culture supernatant of PLAT-E after gene transfer contained virus particles for gene transfer, the culture supernatant was collected and used as a medium for gene transfer. The medium for gene transfer was added to a plate coated with RetroNectin, and the plate was incubated to attach the virus particles to the plate. Then, a mouse pro-B cell line Ba/F3 in the logarithmic growth phase was seeded on the plate and infected with the virus to prepare PIM1, 2, or 3 transgenic cells that proliferate in a PIM 1, 2, or 3-dependent manner. The expression of PIM1, 2, or 3 protein in each cell was confirmed by Western blotting.
Each test substance was prepared to 10 mM with dimethylsulfoxide (DMSO), and diluted with DMSO so as to have concentrations of 3000, 1000, 300, 100, 30, 10, 3, and 1 μM. Moreover, each dilution was further diluted 10-fold with distilled water to prepare a test substance solution.
PIM1, 2, 3-expressing cells were seeded on a 96-well plate, and each test substance solution prepared the next day was added such that final concentrations were 10000, 3000, 1000, 300, 100, 30, 10, 3, and 1 nM. 72 hours after the addition, 10 μL of Cell Counting Kit-8 (DOJINDO LABORATORIES) was added to each well. After incubation for 1 to 4 hours, absorbance OD450 at 450 nm was measured. In addition, absorption OD650 at 650 nm as a reference wavelength was measured.
OD450-OD650 for each condition was calculated, and then the inhibition rates when OD450-OD650 of negative control (DMSO only) and OD450-OD650 of Blank (without cells) were set to 0% and 100%, respectively, were calculated. Then, non-linear regression analysis was performed for logarithmic dose and inhibition rate using a two-parameter logistic model to estimate IC50 values.

[2] = biological target: T1, PIM1 serine/threonine kinase (Homo sapiens, UniProt P11309); assay: PIM1 serine/threonine kinase inhibitory effect; type: biochemical; settings: PIM1 serine/threonine kinase activity; ATP 40 μM; 30° C., 30 minutes
T1 construct: purchased Carna Bioscience, Inc
Description: Each test substance was prepared to 10 mM with dimethylsulfoxide (DMSO), and further diluted with DMSO so as to have concentrations of 1000, 300, 100, 30, 10, 3, 1, 0.3, 0.1, 0.03, 0.01, and 0.001 μM. Moreover, each dilution was further diluted 33.3-fold with an assay buffer to prepare a test substance solution. The composition of the assay buffer was 50 mM HEPES (pH 7.0), 0.02% NaN3, 0.01% Bovine Serum Albumin, 0.1 mM Orthovanadate, 1 mM Dithiothreitol, and 5 mM MgCl2.
5 μL of each test substance solution was added to 384-well plates (n=2), and then 2.5 μL of a substrate solution (substrate 3-biotin (Cisbio Bioassays SAS), final concentration in the reaction solution: 0.5 μM) and 2.5 μL of an ATP solution (in the cases of PIM1, 2, 3, the final concentrations in the reaction solutions were 40, 2, and 10 μM, respectively) were added, 5 μL of each of PIM1, 2, 3 serine/threonine kinase solutions (Carna Bioscience, Inc., the final concentrations in the reaction solutions were 0.15, 1.6, and 0.25 μg/ml, respectively) was finally added, and the mixture was reacted at 30° C. for 30 minutes. The test substance concentrations in the reaction solutions are 10000, 3000, 1000, 300, 100, 30, 10, 3, 1, 0.3, 0.1, and 0.01 nM.
Thereafter, 15 μL of each detection solution (62.5 nM Streptavidin-XL665 (Cisbio Bioassays SAS), […] STK antibody-Cryptate (Cisbio Bioassays SAS), 50 mM HEPES (pH 7.0), 0.8 M KF, 0.1% Bovine Serum Albumin, 20 mM ethylenediaminetetraacetic acid) was added to each well. After stirring, the mixture was reacted at 30° C. for 1 hour. Absorbance (OD620, OD665) at 620 and 665 nm was measured with a microplate reader (SpectraMax M5e, Molecular Devices, LLC).
Non-linear regression analysis was performed by an SAS system (SAS Institute Inc.) using the ratio (OD665/OD620) of the measured absorbance to calculate a test substance concentration (IC50) that inhibits PIM1 serine/threonine kinase activity by 50%.

PIM1 transgenic cells (Ba/F3), sequence (P11309 whole entry, stated change not applied): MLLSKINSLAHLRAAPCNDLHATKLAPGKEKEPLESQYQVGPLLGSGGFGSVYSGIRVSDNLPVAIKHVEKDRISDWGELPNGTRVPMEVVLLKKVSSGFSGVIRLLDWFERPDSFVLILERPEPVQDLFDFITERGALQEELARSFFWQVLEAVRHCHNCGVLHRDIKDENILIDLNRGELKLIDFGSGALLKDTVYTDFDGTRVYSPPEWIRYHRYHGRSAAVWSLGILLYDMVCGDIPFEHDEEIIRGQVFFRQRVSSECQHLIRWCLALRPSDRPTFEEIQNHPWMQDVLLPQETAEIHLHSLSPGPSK
T1 sequence (P11309 whole entry): as the sequence (P11309 whole entry, stated change not applied) above

GI50 [1] [nM]	IC50 [2] [nM]	Structure (SMILES)
100	5.7	O=c1[nH]nc(-c2ccc(C(F)(F)F)c(N[C@@H](CF)C3(F)CCNCC3)c2)o1 [Example 209, 5-[3-{[(1S)-2-fluoro-1-(4-fluoropiperidin-4-yl)ethyl]amino}-4-(trifluoromethyl)phenyl]-1,3,4-oxadiazol-2(3H)-one]
120	5	CC(C)Oc1c(Cl)cc(-c2n[nH]c(=O)o2)cc1N[C@@H](C)C1CCNCC1 [Example 103, 5-(3-chloro-5-{[(1S)-1-(piperidin-4-yl)ethyl]amino}-4-[(propan-2-yl)oxy]phenyl)-1,3,4-oxadiazol-2(3H)-one hydrochloride]
910	12	O=c1[nH]nc(-c2ccc(C(F)(F)F)c(CCC3CCNCC3)c2)o1 [Example 26, 5-{3-[2-(piperidin-4-yl)ethyl]-4-(trifluoromethyl)phenyl}-1,3,4-oxadiazol-2(3H)-one hydrochloride]
37	3.3	C[C@H](Nc1cc(-c2n[nH]c(=O)o2)ccc1Cl)[C@@H]1C[C@H](N)C1(C)C [Example 158, 5-[3-({(1S)-1-[(1R,3S)-3-amino-2,2-dimethylcyclobutyl]ethyl}amino)-4-chlorophenyl]-1,3,4-oxadiazol-2(3H)-one hydrochloride]
18	1.6	C[C@H](Nc1cc(-c2n[nH]c(=O)o2)cc(Cl)c1Cl)[C@H]1CC[C@H](N)CC1 [Example 174, 5-[3-({(1S)-1-[(1r,4S)-4-aminocyclohexyl]ethyl}amino)-4,5-dichlorophenyl]-1,3,4-oxadiazol-2(3H)-one hydrochloride]
190	5.7	C[C@@H]1CN([C@@H](C)C2CCNCC2)c2cc(-c3n[nH]c(=O)o3)cc(F)c2O1 [Example 250, 5-{(2R)-8-fluoro-2-methyl-4-[(1S)-1-(piperidin-4-yl)ethyl]-3,4-dihydro-2H-1,4-benzoxazin-6-yl}-1,3,4-oxadiazol-2(3H)-one]
5100	13	NCCC1CCN(c2cc(-c3n[nH]c(=O)o3)cc3[nH]ncc23)CC1 [Example 12, 5-{4-[4-(2-aminoethyl)piperidin-1-yl]-1H-indazol-6-yl}-1,3,4-oxadiazol-2(3H)-one dihydrochloride]
1600	15	O=c1[nH]nc(-c2ccc(C(F)(F)F)c(NC[C@H]3CCCNC3)c2)o1 [Example 53, 5-[3-({[(3S)-piperidin-3-yl]methyl}amino)-4-(trifluoromethyl)phenyl]-1,3,4-oxadiazol-2(3H)-one hydrochloride]
280	19	CN(C[C@H]1CC[C@H](N)CC1)c1cc(-c2n[nH]c(=O)o2)ccc1C(F)(F)F [Example 130, 5-{3-[{[(1r,4r)-4-aminocyclohexyl]methyl}(methyl)amino]-4-(trifluoromethyl)phenyl}-1,3,4-oxadiazol-2(3H)-one hydrochloride]
110	3.9	C[C@H](Nc1cc(-c2n[nH]c(=O)o2)ccc1C(F)(F)F)[C@H]1CC[C@@H](N)C1 [Example 199, 5-[3-({(1S)-1-[(1S,3R)-3-aminocyclopentyl]ethyl}amino)-4-(trifluoromethyl)phenyl]-1,3,4-oxadiazol-2(3H)-one hydrochloride]
340	8.2	O=c1[nH]nc(-c2cc(F)c(Cl)c(NCC3(F)CCNCC3)c2)o1 [Example 123, 5-(4-chloro-3-fluoro-5-{[(4-fluoropiperidin-4-yl)methyl]amino}phenyl)-1,3,4-oxadiazol-2(3H)-one hydrochloride]
87	–	C[C@H](Nc1cc(-c2n[nH]c(=O)o2)ccc1C(F)(F)F)C12CC(N)(C1)C2 [Example 185, 5-[3-{[(1S)-1-(3-aminobicyclo[1.1.1]pentan-1-yl)ethyl]amino}-4-(trifluoromethyl)phenyl]-1,3,4-oxadiazol-2(3H)-one]
